Source: patent US10385024B2, “Compounds and methods for inhibiting NHE-mediated antiport in the treatment of disorders associated with fluid retention or salt overload and gastrointestinal tract disorders” (Ardelyx, Inc., priority 2012, dated 2019)

Tests used:
human NHE-3 = target: T1, human NHE-3 (Homo sapiens, UniProt P48764); assay: Cell-based assay of NHE-3 activity (human NHE3 inhibition assay); conditions: OK cells with human NHE-3 gene, BCECF pH dye, 0-30 μM test compound; for IC50: read-out: Human NHE3 pIC50 (converted)
T1 construct: expressed in transfected cells; host or cells: Opossum kidney (OK) cells (ATCC), transfected by electroporation
T1 sequence (P48764 26-834): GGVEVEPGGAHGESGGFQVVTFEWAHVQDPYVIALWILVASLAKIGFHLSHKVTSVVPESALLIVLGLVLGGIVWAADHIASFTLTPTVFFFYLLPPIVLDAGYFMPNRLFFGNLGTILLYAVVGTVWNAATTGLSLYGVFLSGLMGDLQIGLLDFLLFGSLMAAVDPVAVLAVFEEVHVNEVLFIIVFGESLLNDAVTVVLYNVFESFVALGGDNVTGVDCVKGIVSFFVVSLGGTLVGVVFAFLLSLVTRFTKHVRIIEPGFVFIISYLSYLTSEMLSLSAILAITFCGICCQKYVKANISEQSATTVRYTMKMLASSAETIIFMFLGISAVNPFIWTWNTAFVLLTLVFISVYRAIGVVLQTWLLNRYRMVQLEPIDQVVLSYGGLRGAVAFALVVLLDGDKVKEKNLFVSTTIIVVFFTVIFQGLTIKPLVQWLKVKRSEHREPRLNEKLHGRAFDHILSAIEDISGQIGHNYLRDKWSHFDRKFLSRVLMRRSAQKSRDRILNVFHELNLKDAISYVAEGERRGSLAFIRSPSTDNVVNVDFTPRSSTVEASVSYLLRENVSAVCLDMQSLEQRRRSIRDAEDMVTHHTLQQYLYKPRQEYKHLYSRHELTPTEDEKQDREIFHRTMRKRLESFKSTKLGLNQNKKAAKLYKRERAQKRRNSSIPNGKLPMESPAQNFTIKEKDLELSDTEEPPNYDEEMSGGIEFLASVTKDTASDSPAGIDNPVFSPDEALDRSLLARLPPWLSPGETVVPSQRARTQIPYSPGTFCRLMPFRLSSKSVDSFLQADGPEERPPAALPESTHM
Method in brief: (§1)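 Opossum kidney cells electroporated with rat or human NHE-3, loaded with 5 μM BCECF-AM in NH4Cl-HEPES pH 7.4 for 30 min at RT, then acidified 10 min in Na+-free choline HEPES. Na+-dependent pH recovery rates from BCECF fluorescence, averaged over ≥2 replicates, gave pIC50.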

Rat NHE-3 [1] = target: T2, Rat NHE-3 (Rattus norvegicus, UniProt P26433); assay: Cell-based assay of NHE-3 activity (rat NHE-3 prompt inhibition); conditions: OK cells with rat NHE-3 gene, compound present during pH recovery; for IC50: read-out: Rat NHE3 pIC50 (prompt) (converted)
T2 construct: expressed in transfected cells; host or cells: Opossum kidney (OK) cells (ATCC), transfected by electroporation
Method in brief: as §1

Rat NHE-3 [2] = target: T2, Rat NHE-3; assay: Cell-based assay of NHE-3 activity (persistent inhibition, after washout); conditions: OK cells with rat NHE-3 gene, 60 min incubation, recovery initiated 40 min after compound washout; for IC50: read-out: Rat NHE3 pIC50 (persistent) (converted)
Method in brief: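 OK cells transiently expressing rat NHE-3 were exposed to 0-30 μM compound in NaCl-HEPES pH 7.4 for 60 min, then washed free of drug before NH4Cl/BCECF-AM loading and acid-loading in Na+-free choline buffer. Na+-dependent pH recovery rates (mean of ≥2 replicates) gave pIC50.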

[3] = system: absorption of sodium from the intestinal lumen; assay: Inhibition of intestinal sodium absorption (urinary sodium and fecal form); assay type: in vivo, Sprague-Dawley rats; conditions: rat; for response vs control in vivo at 3 mg/kg: 3 mg/kg oral gavage, urine 16 h post-dose, asterisks = significance vs vehicle (*P<0.05, **P<0.01, ***P<0.001), read-out: uNa (% of vehicle)
Protocol: Urinary sodium concentration and fecal form were measured to assess the ability of selected example compounds to inhibit the absorption of sodium from the intestinal lumen. Eight-week old Sprague-Dawley rats were purchased from Charles River Laboratories (Hollister, Calif.), were housed 2 per cage, and acclimated for at least 3 days before study initiation. Animals were fed Harlan Teklad Global 2018 rodent chow (Indianapolis, Ind.) and water ad libitum throughout the study and maintained in a standard light/dark cycle of 6 AM to 6 PM. On the day of the study, between 4 PM and 5 PM, a group of rats (n=6) were dosed via oral gavage with test compound at the dosage indicated or vehicle (water) at a volume of 10 mL/kg. After dose administration animals were placed in individual metabolic cages where they were also fed the same chow in meal form and watered ad libitum. At 16 h post-dose, the urine samples were collected and fecal form was assessed by two independent observations. Fecal forms were scored according to a common scale associated with increasing fecal water to the wettest observation in the cage's collection funnel (1, normal pellet; 2, pellet adhering to sides of collection funnel due to moisture; 3, loss of normal pellet shape; 4, complete loss of shape with a blotting pattern; 5, liquid fecal streams evident). A rat's fecal form score (FFS) was determined by averaging both observational scores for all rats within a group (n=6). In every study the vehicle group average was 1. For urine samples, the volumes were determined gravimetrically and centrifuged at 3,600×g. The supernatants were diluted 100-fold in deionized Milli-Q water then filtered through a 0.2 μm GHP Pall AcroPrep filter plate (Pall Life Sciences, Ann Arbor, Mich.) prior to analysis by ion chromatography. Ten microliters of each filtered extract was injected onto a Dionex ICS-3000 ion chromatograph system (Dionex, Sunnyvale, Calif.). Cations were separated by an isocratic method using 25 mM methanesulfonic acid as the eluent on an IonPac CS12A 2 mm i.d.×250 mm, 8 μm particle size cation exchange column (Dionex). Sodium was quantified using standards prepared from a cation standard mix containing Li^+, Na^+, NH4^+, K^+, Mg^2+, and Ca^2+ (Dionex). The mean mass of sodium urinated for every group in the 16 h period was determined with the vehicle group usually urinating approximately 21 mg sodium. The urine Na (uNa) for rats in the test groups were expressed as a percentage of the vehicle mean and the means were compared to that of the vehicle group by utilizing a one-way analysis of variance coupled with a Dunnett's post hoc test.

T2 sequence (P26433 29-831): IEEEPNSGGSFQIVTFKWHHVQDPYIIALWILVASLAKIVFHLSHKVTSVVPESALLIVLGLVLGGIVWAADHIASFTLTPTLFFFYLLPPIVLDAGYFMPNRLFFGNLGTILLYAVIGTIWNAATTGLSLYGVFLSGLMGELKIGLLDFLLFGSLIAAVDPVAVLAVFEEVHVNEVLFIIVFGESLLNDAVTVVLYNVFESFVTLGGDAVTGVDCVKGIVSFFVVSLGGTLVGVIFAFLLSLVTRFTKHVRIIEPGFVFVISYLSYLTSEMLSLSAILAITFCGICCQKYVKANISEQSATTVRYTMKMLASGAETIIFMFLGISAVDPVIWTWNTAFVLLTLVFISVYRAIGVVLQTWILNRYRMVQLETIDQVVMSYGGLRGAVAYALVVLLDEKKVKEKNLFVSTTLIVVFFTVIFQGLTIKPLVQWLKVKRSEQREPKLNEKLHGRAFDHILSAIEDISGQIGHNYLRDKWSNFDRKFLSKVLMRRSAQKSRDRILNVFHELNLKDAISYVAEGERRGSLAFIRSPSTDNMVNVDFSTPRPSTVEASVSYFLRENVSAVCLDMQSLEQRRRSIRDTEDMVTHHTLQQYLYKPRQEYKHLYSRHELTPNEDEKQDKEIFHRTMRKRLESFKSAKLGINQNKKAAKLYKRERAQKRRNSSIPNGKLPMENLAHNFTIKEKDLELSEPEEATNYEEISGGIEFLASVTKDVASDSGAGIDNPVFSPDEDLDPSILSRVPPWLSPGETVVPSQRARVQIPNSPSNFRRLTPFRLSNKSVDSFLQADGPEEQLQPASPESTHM

Row | Compound | Human NHE3 pIC50 (human NHE-3) | Rat NHE3 pIC50 (prompt) (Rat NHE-3 [1]) | Rat NHE3 pIC50 (persistent) (Rat NHE-3 [2]) | IC50 (human NHE-3) [nM] | IC50 (Rat NHE-3 [1]) [nM] | IC50 (Rat NHE-3 [2]) [nM] | FFS ([3]; fecal form score, scale 1 (normal pellet) to 5 (liquid fecal streams), group average, 3 mg/kg oral, 16 h post-dose, vehicle = 1) | response vs control in vivo at 3 mg/kg [3] [%]
1 | CN1Cc2c(Cl)cc(Cl)cc2[C@H](c2cccc(S(=O)(=O)NCCOCCOCCNC(=O)CCC(CCC(=O)NCCOCCOCCNS(=O)(=O)c3cccc([C@@H]4CN(C)Cc5c(Cl)cc(Cl)cc54)c3)(CCC(=O)NCCOCCOCCNS(=O)(=O)c3cccc([C@@H]4CN(C)Cc5c(Cl)cc(Cl)cc54)c3)NC(=O)NCP(=O)(O)O)c2)C1 [Example 32] | B (B NHE3 pIC50 5-7) | C (C NHE3 pIC50 > 7) | C (C NHE3 pIC50 > 7) | – | – | – | 2 | 35 to 75
2 | CN1Cc2c(Cl)cc(Cl)cc2[C@H](c2cccc(S(=O)(=O)NCCOCCOCCNC(=O)CCC(CCC(=O)NCCOCCOCCNS(=O)(=O)c3cccc([C@@H]4CN(C)Cc5c(Cl)cc(Cl)cc54)c3)(CCC(=O)NCCOCCOCCNS(=O)(=O)c3cccc([C@@H]4CN(C)Cc5c(Cl)cc(Cl)cc54)c3)NC(=O)NC(CO)CO)c2)C1 [Example 34] | C (C NHE3 pIC50 > 7) | C (C NHE3 pIC50 > 7) | C (C NHE3 pIC50 > 7) | – | – | – | – | < 35
3 | CN1Cc2c(Cl)cc(Cl)cc2[C@H](c2cccc(S(=O)(=O)NCCOCCOCCNC(=O)CCC(CCC(=O)NCCOCCOCCNS(=O)(=O)c3cccc([C@@H]4CN(C)Cc5c(Cl)cc(Cl)cc54)c3)(CCC(=O)NCCOCCOCCNS(=O)(=O)c3cccc([C@@H]4CN(C)Cc5c(Cl)cc(Cl)cc54)c3)NC(=O)N[C@@H](CO)C(=O)O)c2)C1 [Example 39] | C (C NHE3 pIC50 > 7) | C (C NHE3 pIC50 > 7) | C (C NHE3 pIC50 > 7) | – | – | – | – | < 35
4 | CN1Cc2c(Cl)cc(Cl)cc2[C@H](c2cccc(S(=O)(=O)NCCOCCOCCOCCNC(=O)CCC(N)(CCC(=O)NCCOCCOCCOCCNS(=O)(=O)c3cccc([C@@H]4CN(C)Cc5c(Cl)cc(Cl)cc54)c3)CCC(=O)NCCOCCOCCOCCNS(=O)(=O)c3cccc([C@@H]4CN(C)Cc5c(Cl)cc(Cl)cc54)c3)c2)C1 [Example 9, 4-amino-4-(1-(3-((S)-6,8-dichloro-2-methyl-1,2,3,4-tetrahydroisoquinolin-4-yl)phenylsulfonamido)-13-oxo-3,6,9-trioxa-12-azapentadecan-15-yl)-N^1,N^7-bis(2-(2-(2-(2-(3-((S)-6,8-dichloro-2-methyl-1,2,3,4-tetrahydroisoquinolin-4-yl)phenylsulfonamido)ethoxy)ethoxy)ethoxy)ethyl)heptanediamide] | – | – | – | < 100 | < 100 | < 100 | – | < 35
5 | CN1Cc2c(Cl)cc(Cl)cc2[C@H](c2cccc(S(=O)(=O)NCCOCCOCCNC(=O)NCCC[N+](C)(CCCNC(=O)NCCOCCOCCNS(=O)(=O)c3cccc([C@@H]4CN(C)Cc5c(Cl)cc(Cl)cc54)c3)CCCNC(=O)NCCOCCOCCNS(=O)(=O)c3cccc([C@@H]4CN(C)Cc5c(Cl)cc(Cl)cc54)c3)c2)C1 [Example 58] | C (C NHE3 pIC50 > 7) | C (C NHE3 pIC50 > 7) | C (C NHE3 pIC50 > 7) | – | – | – | – | 35 to 75

Now from value to compound, other results behind:

Row | Human NHE3 pIC50 (human NHE-3) | Rat NHE3 pIC50 (prompt) (Rat NHE-3 [1]) | Rat NHE3 pIC50 (persistent) (Rat NHE-3 [2]) | IC50 (human NHE-3) [nM] | IC50 (Rat NHE-3 [1]) [nM] | IC50 (Rat NHE-3 [2]) [nM] | Compound | FFS ([3]; fecal form score, scale 1 (normal pellet) to 5 (liquid fecal streams), group average, 3 mg/kg oral, 16 h post-dose, vehicle = 1) | response vs control in vivo at 3 mg/kg [3] [%]
6 | C (C NHE3 pIC50 > 7) | B (B NHE3 pIC50 5-7) | C (C NHE3 pIC50 > 7) | – | – | – | CN1Cc2c(Cl)cc(Cl)cc2[C@H](c2cccc(S(=O)(=O)N(C)CCOCCOCCNC(=O)NCCCN(CCCNC(=O)NCCOCCOCCN(C)S(=O)(=O)c3cccc([C@@H]4CN(C)Cc5c(Cl)cc(Cl)cc54)c3)CCCNC(=O)NCCOCCOCCN(C)S(=O)(=O)c3cccc([C@@H]4CN(C)Cc5c(Cl)cc(Cl)cc54)c3)c2)C1 [Example 54] | – | > 75
7 | C (C NHE3 pIC50 > 7) | C (C NHE3 pIC50 > 7) | C (C NHE3 pIC50 > 7) | – | – | – | CN1Cc2c(Cl)cc(Cl)cc2C(c2cccc(S(=O)(=O)NCCOCCOCCNC(=O)CCC(CCC(=O)NCCOCCOCCNS(=O)(=O)c3cccc(C4CN(C)Cc5c(Cl)cc(Cl)cc54)c3)(CCC(=O)NCCOCCOCCNS(=O)(=O)c3cccc(C4CN(C)Cc5c(Cl)cc(Cl)cc54)c3)NC(=O)N(C)CC(O)C(O)C(O)C(O)CO)c2)C1 (centres unmarked) [Example 29] | – | 35 to 75
8 | C (C NHE3 pIC50 > 7) | C (C NHE3 pIC50 > 7) | C (C NHE3 pIC50 > 7) | – | – | – | CN(CC(=O)O)CC(=O)NC(CCC(=O)NCCOCCOCCNS(=O)(=O)c1cccc([C@@H]2CN(C)Cc3c(Cl)cc(Cl)cc32)c1)(CCC(=O)NCCOCCOCCNS(=O)(=O)c1cccc([C@@H]2CN(C)Cc3c(Cl)cc(Cl)cc32)c1)CCC(=O)NCCOCCOCCNS(=O)(=O)c1cccc([C@@H]2CN(C)Cc3c(Cl)cc(Cl)cc32)c1 [Example 27] | – | 35 to 75
9 | B (B NHE3 pIC50 5-7) | B (B NHE3 pIC50 5-7) | C (C NHE3 pIC50 > 7) | – | – | – | CN1Cc2c(Cl)cc(Cl)cc2[C@H](c2cccc(S(=O)(=O)NCCOCCOCCNC(=O)CCC(CCC(=O)NCCOCCOCCNS(=O)(=O)c3cccc([C@@H]4CN(C)Cc5c(Cl)cc(Cl)cc54)c3)(CCC(=O)NCCOCCOCCNS(=O)(=O)c3cccc([C@@H]4CN(C)Cc5c(Cl)cc(Cl)cc54)c3)NC(=O)Cn3ccnc3)c2)C1 [Example 30] | – | > 75
10 | – | – | – | 100 to 10000 | 100 to 10000 | < 100 | CN1Cc2c(Cl)cc(Cl)cc2[C@H](c2cccc(S(=O)(=O)NCCOCCOCCNC(=O)CCC(CCC(=O)NCCOCCOCCNS(=O)(=O)c3cccc([C@@H]4CN(C)Cc5c(Cl)cc(Cl)cc54)c3)(CCC(=O)NCCOCCOCCNS(=O)(=O)c3cccc([C@@H]4CN(C)Cc5c(Cl)cc(Cl)cc54)c3)NS(C)(=O)=O)c2)C1 [Example 5, N^1,N^7-bis(2-(2-(2-(3-((S)-6,8-dichloro-2-methyl-1,2,3,4-tetrahydroisoquinolin-4-yl)phenylsulfonamido)ethoxy)ethoxy)ethyl)-4-(3-(2-(2-(2-(3-((S)-6,8-dichloro-2-methyl-1,2,3,4-tetrahydroisoquinolin-4-yl)phenylsulfonamido)ethoxy)ethoxy)ethylamino)-3-oxopropyl)-4-(methylsulfonamido)heptanediamide] | – | 35 to 75
